Results reported in US11446282B2, “Methods of treating mixed dyslipidemia and hypertriglycertdemia” (Kowa Company, Ltd., priority 2017, dated 2022).

Tested on: dyslipidemic patients with renal impairment
Test: Example 3 phase III 52-week trial: lipid levels
Assay type: in vivo, human
Conditions: for HDL-C % Change from baseline at Week 52 (LOCF) / HDL-C Week 52 (LOCF) / LDL-C % Change from baseline at Week 52 (LOCF) / LDL-C Week 52 (LOCF) / RemL-C % Change from baseline at Week 52 (LOCF) / RemL-C Week 52 (LOCF) / TG % Change from baseline at Week 52 (LOCF) / TG Week 52 (LOCF) / TG/HDL-C % Change from baseline at Week 52 (LOCF) / TG/HDL-C Week 52 (LOCF) / apoA1 % Change from baseline at Week 52 (LOCF) / apoA1 Week 52 (LOCF) / non-HDL-C % Change from baseline at Week 52 (LOCF) / non-HDL-C Week 52 (LOCF): 0.2 (0.4) mg/day
Protocol: This was a multicenter, single-arm, open-label, phase III trial. The inclusion criteria were as follows: (1) patients with dyslipidemia aged >20 years at the time of informed consent; (2) men and postmenopausal women; (3) fasting serum TG≥1.70 mmol/L (150 mg/dL) at two consecutive measurements during screening; and (4) patients who followed dietary and physical exercise guidance for >12 weeks before enrollment.
The major exclusion criteria were as follows: (1) patients with fasting serum TG≥5.65 mmol/L (500 mg/dL) during screening; (2) patients with poorly controlled diabetes mellitus (hemoglobin A1c [HbA1c]≥10.5%); (3) patients with concurrent poorly controlled thyroid disease; (4) men with serum creatinine ≥2.5 mg/dL and women with serum creatinine ≥2.0 mg/dL during screening who were already on statin therapy; (5) patients with eGFR<45 mL/min/1.73 m^2 during screening who were already on statin therapy; (6) patients with CK>5ULN (270 IU/L for men, 150 IU/L for women) during screening who were already on statin therapy; (7) patients with serious liver disease (cirrhosis Child-Pugh Class B or higher); (8) patients with gallstones or serious biliary tract disease; (9) patients who had suffered an acute myocardial infarction or stroke within three months before informed consent; and (10) patients with New York Heart Association class III or IV heart failure.
During the screening period (8 weeks prior to treatment initiation), tests were performed twice to determine patient eligibility. Thereafter, eligible patients orally received pemafibrate 0.2 mg/day (twice daily) for 52 weeks. From week 12 of the treatment period onwards, the investigators were instructed that the dose could be increased from 0.2 mg/day to 0.4 mg/day (twice daily) if there was an inadequate response to the initial dose based on fasting serum TG levels ≥1.70 mmol/L (150 mg/dL). Fasting blood and urine samples were collected at each visit. Blood and urine sample in patients with hemodialysis were collected just before dialysis. LDL-C levels were measured using the direct method. Lipoprotein fractions were measured by HPLC at baseline and weeks 12 and 40.
The primary efficacy endpoint was the percent change in fasting serum TG from baseline to the last evaluation point. The primary safety endpoints were the incidence of an AE or ADR occurring after drug administration during the study. Secondary efficacy endpoints included percent changes in lipid variables and changes in inflammation variables at week 52 [using the last-observation-carried-forward (LOCF)]. Secondary safety endpoints included changes in the levels of aspartate aminotransferase (AST), ALT, -GT, ALP, serum creatinine, eGFR, and CK at week 52. Each baseline value was defined as (1) the mean of the corresponding values in the first and second tests at the screening examination and at week 0 of the treatment period for fasting serum TG, HDL-C, total cholesterol (TC), LDL-C, and non-HDL-C; and (2) the value at week 0 of the treatment period for the other secondary variables.
The target sample size was set to 170 patients based on the number required to evaluate safety according to the International Conference on Harmonisation (ICH)-E1 guideline “Extent of population exposure to assess clinical safety for drugs intended for long-term treatment of non-life-threatening conditions”. For the primary efficacy endpoint, one-sample t-tests were performed.
The numbers of patients with AEs and ADRs and the incidences of AEs and ADRs were calculated in the analysis of primary safety endpoints. For the secondary efficacy endpoints, one-sample t-tests or Wilcoxon signed-rank tests [for high-sensitivity C-reactive protein (hsCRP) and IL-1] were performed. The secondary safety endpoints were analyzed with Wilcoxon signed-rank tests. A two-sided significance level of 0.05 was used. SAS v. 9.3 (SAS Institute Inc., Cary, N.C., USA) was used for these analyses. […]

CC[C@@H](Oc1cccc(CN(CCCOc2ccc(OC)cc2)c2nc3ccccc3o2)c1)C(=O)O [Pemafibrate, (2R)-2-[3-({1,3-benzoxazol-2-yl[3-(4-methoxyphenoxy)propyl]amino}methyl)phenoxy]butanoic acid]
HDL-C % Change from baseline at Week 52 (LOCF) (All Participants): 13.1%
HDL-C Week 52 (LOCF) (All Participants): 1.33 mmol/L
LDL-C % Change from baseline at Week 52 (LOCF) (All Participants): 2.2%
LDL-C Week 52 (LOCF) (All Participants): 3.02 mmol/L
RemL-C % Change from baseline at Week 52 (LOCF) (All Participants): −57.2%
RemL-C Week 52 (LOCF) (All Participants): 0.18 mmol/L
TG % Change from baseline at Week 52 (LOCF) (All Participants): −45.8%
TG Week 52 (LOCF) (All Participants): 1.48 mmol/L
TG/HDL-C % Change from baseline at Week 52 (LOCF) (All Participants): −49.7%
TG/HDL-C Week 52 (LOCF) (All Participants): 2.27 (mmol/L)/(mmol/L)
apoA1 % Change from baseline at Week 52 (LOCF) (All Participants): 5.0%
apoA1 Week 52 (LOCF) (All Participants): 137.6 mg/dL
non-HDL-C % Change from baseline at Week 52 (LOCF) (All Participants): −8.7%
non-HDL-C Week 52 (LOCF) (All Participants): 3.63 mmol/L
HDL-C % Change from baseline at Week 52 (LOCF) (eGFR G1 (≥90)): 3.6%
HDL-C Week 52 (LOCF) (eGFR G1 (≥90)): 1.29 mmol/L
LDL-C % Change from baseline at Week 52 (LOCF) (eGFR G1 (≥90)): 2.7%
LDL-C Week 52 (LOCF) (eGFR G1 (≥90)): 3.12 mmol/L
RemL-C % Change from baseline at Week 52 (LOCF) (eGFR G1 (≥90)): −59.9%
RemL-C Week 52 (LOCF) (eGFR G1 (≥90)): 0.21 mmol/L
TG % Change from baseline at Week 52 (LOCF) (eGFR G1 (≥90)): −41.4%
TG Week 52 (LOCF) (eGFR G1 (≥90)): 1.71 mmol/L
TG/HDL-C % Change from baseline at Week 52 (LOCF) (eGFR G1 (≥90)): −40.5%
TG/HDL-C Week 52 (LOCF) (eGFR G1 (≥90)): 1.58 (mmol/L)/(mmol/L)
apoA1 % Change from baseline at Week 52 (LOCF) (eGFR G1 (≥90)): 0.0%
apoA1 Week 52 (LOCF) (eGFR G1 (≥90)): 133.8 mg/dL
non-HDL-C % Change from baseline at Week 52 (LOCF) (eGFR G1 (≥90)): −8.3%
non-HDL-C Week 52 (LOCF) (eGFR G1 (≥90)): 3.77 mmol/L
HDL-C % Change from baseline at Week 52 (LOCF) (eGFR G2 (≥60 and <90)): 11.9%
HDL-C Week 52 (LOCF) (eGFR G2 (≥60 and <90)): 1.34 mmol/L
LDL-C % Change from baseline at Week 52 (LOCF) (eGFR G2 (≥60 and <90)): 2.1%
LDL-C Week 52 (LOCF) (eGFR G2 (≥60 and <90)): 3.03 mmol/L
RemL-C % Change from baseline at Week 52 (LOCF) (eGFR G2 (≥60 and <90)): −56.0%
RemL-C Week 52 (LOCF) (eGFR G2 (≥60 and <90)): 0.18 mmol/L
TG % Change from baseline at Week 52 (LOCF) (eGFR G2 (≥60 and <90)): −45.8%
TG Week 52 (LOCF) (eGFR G2 (≥60 and <90)): 1.47 mmol/L
TG/HDL-C % Change from baseline at Week 52 (LOCF) (eGFR G2 (≥60 and <90)): −48.9%
TG/HDL-C Week 52 (LOCF) (eGFR G2 (≥60 and <90)): 1.24 (mmol/L)/(mmol/L)
apoA1 % Change from baseline at Week 52 (LOCF) (eGFR G2 (≥60 and <90)): 4.1%
apoA1 Week 52 (LOCF) (eGFR G2 (≥60 and <90)): 137.2 mg/dL
non-HDL-C % Change from baseline at Week 52 (LOCF) (eGFR G2 (≥60 and <90)): −8.4%
non-HDL-C Week 52 (LOCF) (eGFR G2 (≥60 and <90)): 3.64 mmol/L
HDL-C % Change from baseline at Week 52 (LOCF) (eGFR G3a-G3b (≥30 and <60)): 17.0%
HDL-C Week 52 (LOCF) (eGFR G3a-G3b (≥30 and <60)): 1.38 mmol/L
LDL-C % Change from baseline at Week 52 (LOCF) (eGFR G3a-G3b (≥30 and <60)): 5.1%
LDL-C Week 52 (LOCF) (eGFR G3a-G3b (≥30 and <60)): 2.97 mmol/L
RemL-C % Change from baseline at Week 52 (LOCF) (eGFR G3a-G3b (≥30 and <60)): −59.3%
RemL-C Week 52 (LOCF) (eGFR G3a-G3b (≥30 and <60)): 0.17 mmol/L
TG % Change from baseline at Week 52 (LOCF) (eGFR G3a-G3b (≥30 and <60)): −51.1%
TG Week 52 (LOCF) (eGFR G3a-G3b (≥30 and <60)): 1.36 mmol/L
TG/HDL-C % Change from baseline at Week 52 (LOCF) (eGFR G3a-G3b (≥30 and <60)): −57.0%
TG/HDL-C Week 52 (LOCF) (eGFR G3a-G3b (≥30 and <60)): 1.09 (mmol/L)/(mmol/L)
apoA1 % Change from baseline at Week 52 (LOCF) (eGFR G3a-G3b (≥30 and <60)): 8.0%
apoA1 Week 52 (LOCF) (eGFR G3a-G3b (≥30 and <60)): 144.0 mg/dL
non-HDL-C % Change from baseline at Week 52 (LOCF) (eGFR G3a-G3b (≥30 and <60)): −7.7%
non-HDL-C Week 52 (LOCF) (eGFR G3a-G3b (≥30 and <60)): 3.56 mmol/L
HDL-C % Change from baseline at Week 52 (LOCF) (eGFR G4-G5 (<30)): 34.1%
HDL-C Week 52 (LOCF) (eGFR G4-G5 (<30)): 1.18 mmol/L
LDL-C % Change from baseline at Week 52 (LOCF) (eGFR G4-G5 (<30)): −8.8%
LDL-C Week 52 (LOCF) (eGFR G4-G5 (<30)): 2.82 mmol/L
RemL-C % Change from baseline at Week 52 (LOCF) (eGFR G4-G5 (<30)): −57.1%
RemL-C Week 52 (LOCF) (eGFR G4-G5 (<30)): 0.24 mmol/L
TG % Change from baseline at Week 52 (LOCF) (eGFR G4-G5 (<30)): −37.7%
TG Week 52 (LOCF) (eGFR G4-G5 (<30)): 1.64 mmol/L
TG/HDL-C % Change from baseline at Week 52 (LOCF) (eGFR G4-G5 (<30)): −51.0%
TG/HDL-C Week 52 (LOCF) (eGFR G4-G5 (<30)): 1.68 (mmol/L)/(mmol/L)
apoA1 % Change from baseline at Week 52 (LOCF) (eGFR G4-G5 (<30)): 16.7%
apoA1 Week 52 (LOCF) (eGFR G4-G5 (<30)): 122.4 mg/dL
non-HDL-C % Change from baseline at Week 52 (LOCF) (eGFR G4-G5 (<30)): −17.3%
non-HDL-C Week 52 (LOCF) (eGFR G4-G5 (<30)): 3.48 mmol/L
LDL-C change (observation) (lowest eGFR group (eGFR<30 mL/min/1.73 m^2: G4-G5)): reduction
